We go through two molecules from ChEMBL document CHEMBL5584256, “Bromine/Sulfur-Substituted 9H-Carbazoles Produced by the Marine-Derived Streptomyces sp. OUCMDZ-5511 upon NaBr Exposure” (J Nat Prod, 2024).

For data set [1], the species on record is Danio rerio. In words: Anti-inflammatory activity in transgenic zebrafish harboring Tg (zlyz:EGFP) assessed as reduction in CuSO4-induced IKK-beta mRNA level at 5 to 15 uM preincubated for 2 hrs followed by CuSO4 treatment for 45 mins […]. The format is functional, organism-based. The conditions noted are these: dose 5-15 µM, time 165.0 min.

The species named for data set [2] is Danio rerio. The data set can be described thus: Anti-inflammatory activity in transgenic zebrafish harboring Tg (zlyz:EGFP) assessed as reduction in CuSO4-induced IRAK4 mRNA level at 5 to 15 uM preincubated for 2 hrs followed by CuSO4 treatment for 45 mins […]. In kind it is functional, organism-based. The conditions noted are these: dose 5-15 µM, time 165.0 min.

The species entered for data set [3] is Danio rerio. In words: Anti-inflammatory activity in transgenic zebrafish harboring Tg (zlyz:EGFP) assessed as increase in CuSO4-reduced PPAR-gamma mRNA level at 5 to 15 uM preincubated for 2 hrs followed by CuSO4 treatment for 45 mins […]. The format is functional, organism-based. To be noted: dose 5-15 µM, time 165.0 min.
The species entered for data set [4] is Danio rerio. The data set can be described thus: Anti-inflammatory activity in transgenic zebrafish harboring Tg (zlyz:EGFP) assessed as reduction in CuSO4-induced TRAF6 mRNA level at 5 to 15 uM preincubated for 2 hrs followed by CuSO4 treatment for 45 mins […]. The format is functional, organism-based. To be noted: dose 5-15 µM, time 165.0 min.

The species entered for data set [5] is Danio rerio. In words: Anti-inflammatory activity in transgenic zebrafish harboring Tg (zlyz:EGFP) assessed as reduction in CuSO4-induced immune cell migration at 5 to 15 uM preincubated for 2 hrs followed by CuSO4 treatment for 45 mins by fluorescence microscopy. The format is functional, organism-based. The conditions noted are these: dose 5-15 µM, time 165.0 min.

Data set [6] is filed under the species Danio rerio. In words: Anti-inflammatory activity in transgenic zebrafish harboring Tg (zlyz:EGFP) assessed as reduction in CuSO4-induced I-kappa-b-alpha mRNA level at 5 to 15 uM preincubated for 2 hrs followed by CuSO4 treatment for 45 mins […]. In kind it is functional, organism-based. To be noted: dose 5-15 µM, time 165.0 min.
For data set [7], the species on record is Danio rerio. In words: Anti-inflammatory activity in transgenic zebrafish harboring Tg (zlyz:EGFP) assessed as reduction in CuSO4-induced AP-1 mRNA level at 5 to 15 uM preincubated for 2 hrs followed by CuSO4 treatment for 45 mins […]. The conditions noted are these: dose 5-15 µM, time 165.0 min. The format is functional, organism-based.

The species entered for data set [8] is Danio rerio. The data set can be described thus: Anti-inflammatory activity in transgenic zebrafish harboring Tg (zlyz:EGFP) assessed as reduction in CuSO4-induced MYD88 mRNA level at 5 to 15 uM preincubated for 2 hrs followed by CuSO4 treatment for 45 mins […]. In kind it is functional, organism-based. The conditions noted are these: dose 5-15 µM, time 165.0 min.

The species entered for data set [9] is Danio rerio. In words: Anti-inflammatory activity in transgenic zebrafish harboring Tg (zlyz:EGFP) assessed as reduction in CuSO4-induced TGF-beta mRNA level at 5 to 15 uM preincubated for 2 hrs followed by CuSO4 treatment for 45 mins […]. The format is functional, organism-based. The conditions noted are these: dose 5-15 µM, time 165.0 min.

The species entered for data set [10] is Danio rerio. The data set can be described thus: Anti-inflammatory activity in transgenic zebrafish harboring Tg (zlyz:EGFP) assessed as reduction in CuSO4-induced MAP3K7 mRNA level at 5 to 15 uM preincubated for 2 hrs followed by CuSO4 treatment for 45 mins […]. To be noted: dose 5-15 µM, time 165.0 min. In kind it is functional, organism-based.

For data set [11], the species on record is Danio rerio. The data set can be described thus: Anti-inflammatory activity in transgenic zebrafish harboring Tg (zlyz:EGFP) assessed as reduction in CuSO4-induced immune cell migration at 10 uM preincubated for 2 hrs followed by CuSO4 treatment for 45 mins by fluorescence microscopy. The format is functional, organism-based. To be noted: time 165.0 min.

A short description of data set [12]: Toxicity in transgenic zebrafish harboring Tg (zlyz:EGFP) preincubated for 2 hrs followed by CuSO4 treatment for 45 mins. To be noted: in vivo, time 165 min. Further details: species or system Danio rerio.
The species named for data set [13] is Danio rerio. The data set can be described thus: Anti-inflammatory activity in transgenic zebrafish harboring Tg (zlyz:EGFP) assessed as reduction in CuSO4-induced p38 mRNA level at 5 to 15 uM preincubated for 2 hrs followed by CuSO4 treatment for 45 mins […]. The format is functional, organism-based. The conditions noted are these: dose 5-15 µM, time 165.0 min.

The species named for data set [14] is Danio rerio. The data set can be described thus: Anti-inflammatory activity in transgenic zebrafish harboring Tg (zlyz:EGFP) assessed as reduction in CuSO4-induced IRAK1 mRNA level at 5 to 15 uM preincubated for 2 hrs followed by CuSO4 treatment for 45 mins […]. To be noted: dose 5-15 µM, time 165.0 min. In kind it is functional, organism-based.

Data set [15] is filed under the species Danio rerio. The data set can be described thus: Anti-inflammatory activity in transgenic zebrafish harboring Tg (zlyz:EGFP) assessed as reduction in CuSO4-induced NF-kappa-b mRNA level at 5 to 15 uM preincubated for 2 hrs followed by CuSO4 treatment for 45 mins […]. The format is functional, organism-based. The conditions noted are these: dose 5-15 µM, time 165.0 min.

For data set [16], the species on record is Danio rerio. In words: Anti-inflammatory activity in transgenic zebrafish harboring Tg (zlyz:EGFP) assessed as reduction in CuSO4-induced IL-8 mRNA level at 5 to 15 uM preincubated for 2 hrs followed by CuSO4 treatment for 45 mins […]. In kind it is functional, organism-based. To be noted: dose 5-15 µM, time 165.0 min.

Activity calls are given as the source filed them. No cut-off for these calls is given here.

As for `COc1ccc2[nH]c3c(O)cccc3c2c1Br`, the outcome in the data set filed under Danio rerio [1], in the data set listed under Danio rerio [2], in the data set listed under Danio rerio [3], in the data set listed under Danio rerio [4], in the data set filed under Danio rerio [5] and in the data set listed under Danio rerio [6] was Active. Moreover, the result in the data set listed under Danio rerio [7], in the data set filed under Danio rerio [8], in the data set listed under Danio rerio [9], in the data set listed under Danio rerio [10], in the data set filed under Danio rerio [11] and in the data set listed under Danio rerio [13] was Active. Also, the result in the data set listed under Danio rerio [14], in the data set listed under Danio rerio [15] and in the data set listed under Danio rerio [16] was Active. The molecule further returned an LC50 at 0.75 h in [12] of 68 µM.

As to `COc1ccc2[nH]c3c(ccc4scnc43)c2c1Br`, in the data set filed under Danio rerio [11], the outcome was Active.

Broadly, the LC50 is the concentration lethal to half of the exposed cells or organisms.
